How the values were obtained:
[1] = Antagonist screening for pea protein off-notes on VAS aroma blending device, off-note Ex. A; set-up: key to Off-note Ex. A masking effect: +++ being most effective; ++ in the middle; + some effect; +/− being in between; − being no effect; settings: off-note channel 1, 0.01% in MCT, flow 300; antagonist channel conc. as in Table 2 c2
Procedure: (§1) In one embodiment, the screening step is carried out using the above described aroma blending device as follows: each off-note molecule(s) identified from a target non-animal derived protein may be loaded into its own individual cartridge or channel (for example, propyl-iso-2-methoxy-3-pyrazine may be loaded into cartridge/channel #1, and isobutyl-3-methoxy-2-pyrazine may be loaded into cartridge/channel #2, etc.); next, the target non-animal protein is diluted as will be discussed below and may be loaded into its own individual cartridge/channel, for example, cartridge/channel #6 to act as the control or base; next, each antagonist candidate molecule that has been identified may be loaded into its own individual cartridge/channel (for example, molasses distillate may be loaded into cartridge/channel #7 and bisabolene may be loaded into cartridge/channel #8, etc). Next, the gas flow on the off-note molecule containing cartridge/channel is first opened, followed by one of the antagonist candidate molecule containing cartridges/channels. The intensity of the flow of the antagonist candidate molecule containing cartridge/channel is adjusted until the off-note is canceled or neutralized by the antagonist candidate molecule, i.e neutralization concentration. This process is repeated for each antagonist candidate molecule containing cartridges/channels so that all of the potential antagonist candidate molecules are screened.
(§2) Selection and screening of the antagonist molecules was performed using the VAS aroma blending device. As described above, each off-note molecule from Table 1 was loaded into its own individual cartridge or channel as shown in Table 2 (#'s 1-5). Each off-note molecule was diluted with medium-chain triglyceride (“MCT”) prior to loading into the cartridge/channel. Next, the target non-animal protein was diluted at 2% plus 0.1% xanthan gum in water with a small amount of antifoam agent (0.01%) and was placed into a cartridge/channel (#21). Each antagonist candidate molecule was then diluted with MCT in a pre-determined concentration and was loaded into a cartridge/channel as shown in Table 2 (#'s 6-20). Next, the gas flow (between 0 to 500 ml/min) on the off-note molecule containing cartridge/channel is first opened, followed by one of the antagonist candidate molecule containing cartridges/channels. The intensity of the flow of the antagonist candidate molecule containing cartridge/channel is adjusted until the off-note is canceled or neutralized by the antagonist candidate molecule, i.e neutralization concentration. This process is repeated for each antagonist candidate molecule containing cartridges/channels so that all of the potential antagonist candidate molecules are screened.
(§3) The numeric number in the column refers the flow rate on VAS aroma blending device.

[2] = Antagonist screening for pea protein off-notes on VAS aroma blending device, off-note Ex. B; set-up: key to Off-note Ex. B masking effect: +++ being most effective; ++ in the middle; + some effect; +/− being in between; − being no effect; settings: off-note channel 2, 0.001% in MCT, flow 150; antagonist channel conc. as in Table 2 c2
Procedure: as §1, §2, §3

[3] = Antagonist screening for pea protein off-notes on VAS aroma blending device, off-note Ex. C; set-up: key to Off-note Ex. C masking effect: +++ being most effective; ++ in the middle; + some effect; +/− being in between; − being no effect; settings: off-note channel 3, 0.01% in MCT, flow 185; antagonist channel conc. as in Table 2 c2
Procedure: as §1, §2, §3

[4] = Antagonist screening for pea protein off-notes on VAS aroma blending device, off-note Ex. D; set-up: key to Off-note Ex. D masking effect: +++ being most effective; ++ in the middle; + some effect; +/− being in between; − being no effect; settings: off-note channel 4, 0.10% in MCT, flow 15; antagonist channel conc. as in Table 2 c2
Procedure: as §1, §2, §3

[5] = Antagonist screening for pea protein off-notes on VAS aroma blending device, off-note Ex. E; set-up: key to Off-note Ex. E masking effect: +++ being most effective; ++ in the middle; + some effect; +/− being in between; − being no effect; settings: off-note channel 5, 1.0% in MCT, flow 150; antagonist channel conc. as in Table 2 c2
Procedure: as §1, §2, §3

| Compound | Off-note Ex. A Flow Rate (antagonist channel) [1] | Off-note Ex. A masking effect [1] | Off-note Ex. B masking effect [2] | Off-note Ex. C Flow Rate (antagonist channel) [3] | Off-note Ex. C masking effect [3] | Off-note Ex. D masking effect [4] | Off-note Ex. E Flow Rate (antagonist channel) [5] | Off-note Ex. E masking effect [5] | Off-note Ex. B Flow Rate (antagonist channel) [2] | Off-note Ex. D Flow Rate (antagonist channel) [4] |
| --- | --- | --- | --- | --- | --- | --- | --- | --- | --- | --- |
| C=CCOC(=O)CCC1CCCCC1 [Ally1 Cyclohexyl Proprionate] | 165 mL/min | +/− | − | 100 mL/min | +++ | − | 175 mL/min | ++ |  |  |
| CCOC(=O)CCC(=O)OCC [Diethyl Succinate] | 250 mL/min | ++ | ++ | 200 mL/min | +/− | ++ |  |  | 300 mL/min | 200 mL/min |
| CCCCCCCCCCCCCCCC(=O)OCC [Ethyl Palmitate] |  | − |  | 35 mL/min | ++ | − | 300 mL/min | + | 100 mL/min |  |
| CCOC(=O)C(C)O (stereo not drawn) [Ethyl lactate] | 90 mL/min | +++ | +++ | 200 mL/min | ++ | ++ |  |  | 100 mL/min | 200 mL/min |
| Bisabolene |  | − | − |  | − | − | 150 mL/min | + |  |  |
| Caryophyllene | 100 mL/min | +++ | + |  | − | ++ | 200 to 225 mL/min | + |  | 150 mL/min |

— patent US20240341337A1, “METHOD FOR CREATING MASKING COMPOSITIONS” (GIVAUDAN SA, priority 2021, published 2024)
